{"source": "paper PMC6315057", "about": "“Industrial scale high-throughput screening delivers multiple fast acting macrofilaricides” (Nature Communications, 2019)", "key": {"[1]": {"test_system": "Wolbachia within Brugia malayi Mf", "experiment": "Anti-Wolbachia time-kill analysis (timed wash-out) in B. malayi Mf", "format": "cell-based", "text": "To compare the dynamics of the in vitro phenotype of our hits with existing anti-Wolbachia therapies, we employed a timed wash-out strategy (Fig. 5) at 10x EC50 to establish the anti-Wolbachia time-kill kinetics of the selected chemotypes (1A–5A), using five replicates per compound. […].\nFig. 5 Anti-Wolbachia time-kill analysis. Representatives from the top five clusters (1A–5A), as well as established anti-Wolbachia antibacterials (doxycycline (white), minocycline (grey), rifampicin (black)) were assessed after exposure for 1 day and 2 days before washing and further incubation until the standard 6-day read out. wsp:gst ratio was normalised to the DMSO vehicle control resulting in a read out of mean percentage reduction from control. Doxycycline day 6 treatment represents the result for exposure to doxycycline at 5 µM for a full 6 days (no wash). The box extends from the 25th to the 75th percentile with the median presented by the central line. The whiskers are set at the minimum and maximum therefore indicating the range from five replicates. The cluster number is indicated by colour: cluster 1 (dark blue), 2 (magenta), 3 (teal), 4 (dark gold), and 5 (light blue)\n(§1) The Mf were obtained by peritoneal lavage, using a catheter, of gerbils (Meriones unguiculatus) harbouring a patent infection of B. malayi. Mf were purified using a PD-10 desalting column (Fisher), centrifuged (311 RCF for 5 min at room temperature) before the addition of 8000 Mf/well of a 96-well plate (100 µl per well) in complete media consisting of RPMI supplemented with 10% FBS, 1% penicillin streptomycin and 1% amphotericin B. Compounds were diluted in complete media and 100 µl was added per well, providing a final concentration of 5 µM, with five replicates per compound. Each plate contained doxycycline (5 µM) and DMSO controls. After incubation at 37 °C for 6 days in 5% CO2, visual assessment of Mf motility was performed and scored from 0 to 4 per well (where 0 = no movement and 4 = highly motile). DNA extraction per sample was performed using the QIAmp DNA Mini Kit before quantitative PCR was performed to obtain the ratio of Wolbachia Surface Protein gene copy number (wsp) to Glutathione S-Transferase gene copy number (gst)[36]. The DNA was amplified using the primers as indicated in Supplementary Table 6.\n(§2) The wsp:gst ratio data allowed for normalisation of the Wolbachia level to the Mf biomass for each well. The change in wsp:gst for each compound compared to the DMSO control was calculated before normalisation to the onboard doxycycline control to allow for inter-assay comparison."}, "[2]": {"test_system": "Wolbachia within Brugia malayi Mf", "experiment": "B. malayi microfilarial (Mf) in vitro anti-Wolbachia assay (wsp:gst qPCR)", "format": "cell-based", "conditions": "Brugia malayi, 144 h; B. malayi Mf, 6 days; read-out: Mf EC50", "protocol": "as §1, with “Compounds were diluted in complete media and 100 µl was added per well, providing a final concentration of 5 µM, with five replicates per compound.” left out\nas §2"}}, "data": [{"smiles": "C[C@H]1c2cccc(O)c2C(=O)C2=C(O)[C@]3(O)C(=O)C(C(N)=O)=C(O)[C@@H](N(C)C)[C@@H]3[C@@H](O)[C@@H]21", "note": "[doxycycline, reference compound]", "values": [{"measurement": "Wolbachia reduction after a single day of exposure", "setting": "[1]; 10x EC50, 1 day exposure, wash, 6-day read out, normalised to vehicle control", "result": 9, "unit": "%"}, {"measurement": "Exposure time to achieve a maximal Wolbachia reduction", "setting": "[1]; 10x EC50, maximal reduction 70–90% normalised to vehicle control", "result": "> 2", "unit": "days"}, {"measurement": "EC50", "setting": "[2]", "result": 250, "unit": "nM"}]}]}
